The results in this text go back to patent US20220177459A1, “AROMATIC AMINE COMPOUND AND USE THEREOF IN PREPARATION OF AR AND BRD4 DUAL INHIBITORS AND REGULATORS” (HINOVA PHARMACEUTICALS INC., priority 2019, published 2022).

In the first assay the test system is LNCaP/AR cells. Description: Inhibition of proliferation of prostate cancer cells LNCaP/AR (CCK-8). It counts as cell-based. The conditions noted are these: 144 h, 6 days culture, CCK-8, OD 450 nm, read-out: IC50 (μM), inhibitory activity on prostate cancer cell LNCap/AR. As for the experimental part:
1. Biological determination of the inhibitory effect on the proliferation of prostate cancer cells LNCaP/AR
Cell culture medium: RIPM1640 media, 10% FBS, 1% Pen Strep;
(§1) 1) LNCaP/AR cells were subcultured in cell culture medium, and the cells in good growth condition were seeded in a 96-well plate, with 80 μL per well (i.e. 1000 cells per well), and cultured overnight in a 37° C., 5% CO2 cell incubator.
2) The drug was prepared with dimethylsulfoxide (DMSO) as a 10 mM stock solution.
(§2) Immediately before use, the stock solution was diluted 3 times with DMSO, and then diluted as a 3-fold gradient to obtain 9 concentration gradients. Then, the compound of each concentration was diluted 200 times with the culture media (to ensure that the DMSO concentration in the culture system was 0.1%), and two multiple holes were set for each concentration. 20 μL of the diluted compound was added to the cell culture well (with a final concentration of 10 μM, 3.3 μM, 1.1 μM . . . ), and then shook gently to mix. In addition, three negative control wells with only cells and three blank control wells with only culture medium were included (6 wells being each added with DMSO diluted 200 times with 20 μL culture medium).
(§3) 1) After culturing for 6 days, 10 μL of CCK-8 was added to each well and continued culturing for 1 hour in a 37° C., 5% CO2 cell incubator.
(§4) 2) The absorbance (OD value) was measured at 450 nm using a multifunctional microplate reader.
(§5) 3) The data were analyzed by the Dose-response-inhibition equation in the software GraphPad Prism5, and the IC50 value was obtained.
As to `CCN(c1ccc(-c2c[nH]nn2)cc1)c1cc(-c2c(C)noc2C)ccc1C` [Compound 131], the IC50 amounted to 0.88 µM. For the compound `CCN(c1ccc(-n2ccnc2)cc1)c1cc(-c2c(C)n[nH]c2C)ccc1C` [Compound 21], the IC50 was 3.98 µM. With `CCN(c1ccc(OC(F)(F)F)cc1)c1cc(-c2c(C)noc2C)ccc1C` [Compound 109], the IC50 was found to be 4.46 µM.

As for `CCN(c1ccc2cn[nH]c2c1)c1cc(-c2c(C)noc2C)ccc1C` [Compound 114], the IC50 was 0.89 µM. As for `Cc1ccc(-c2c(C)n[nH]c2C)cc1N(CCCCCO)c1ccc(C#N)c(Cl)c1` [Compound 6], the IC50 was 3.67 µM. `CCN(c1ccc(-c2nnco2)cc1)c1cc(-c2c(C)noc2C)ccc1C` [Compound 129]: the IC50 worked out at 1.13 µM. As for `CCN(c1ccc(-c2cn(C)nn2)cc1)c1cc(-c2c(C)noc2C)ccc1C` [Compound 102, 5-(3,5-dimethylisoxazol-4-yl)-N-ethyl-2-methyl-N-(4-(1-methyl-1H-1,2,3-triazol-4-yl)phenyl)aniline], the IC50 amounted to 1.45 µM.

For the compound `CCN(c1ccc(C2(C#N)CCC2)cc1)c1cc(-c2c(C)noc2C)ccc1C` [Compound 112], the IC50 turned out to be 1.86 µM.

`CCN(c1ccc(C#N)c(C(F)(F)F)c1)c1cc(-c2c(C)noc2C)ccc1C` [Compound 16]: the IC50 stood at 1.66 µM. The same measure, in the same setting: the same measure for `CCN(c1ccc([N+](=O)[O-])cc1)c1cc(-c2c(C)noc2C)ccc1C` [Compound 99]: 0.4 µM; for `CCN(c1ccc(-c2cnc[nH]2)cc1)c1cc(-c2c(C)noc2C)ccc1C` [Compound 107]: 3.67 µM; for `CCN(c1ccc(-c2cn[nH]c2C)cc1)c1cc(-c2c(C)noc2C)ccc1C` [Compound 126]: 0.99 µM. The same measure, in the same setting: the same measure for `CCN(c1ccc(-n2ccnc2)cc1)c1cc(-c2c(C)nn(CCO)c2C)ccc1C` [Compound 23]: 6.42 µM; for `Cc1ccc(-c2c(C)noc2C)cc1N(CCO)c1ccc(-n2ccnc2)c(Br)c1` [Compound 58]: 2.32 µM; for `CCN(c1ccc(S(C)(=O)=O)cc1)c1cc(-c2c(C)noc2C)ccc1C` [Compound 113]: 2.53 µM.

As to `CCN(c1ccc2ncn(C)c2c1)c1cc(-c2c(C)noc2C)ccc1C` [Compound 132], the IC50 was determined as 2.54 µM. For `CCN(c1ccc(-c2ncon2)cc1)c1cc(-c2c(C)noc2C)ccc1C` [Compound 105, N-(4-(1,2,4-oxadiazole-3-yl)phenyl)-5-(3,5-dimethylisoxazol-4-yl)-N-ethyl-2-methylaniline], the IC50 was found to be 0.71 µM. With `CCN(c1ccc2nc[nH]c2c1)c1cc(-c2c(C)noc2C)ccc1C` [Compound 115, N-(5-(3,5-dimethylisoxazol-4-yl)-2-methylphenyl) N-ethyl-1H-benzo[d]imidazole-6-amine], the IC50 was determined as 1.3 µM. Same read-out and setting: under `Cc1ccc(-c2c(C)noc2C)cc1Nc1ccc(-c2c(C)noc2C)cc1` [Compound 119] stands 0.17 µM; under `CCN(c1ccc(-c2nnc[nH]2)cc1)c1cc(-c2c(C)noc2C)ccc1C` [Compound 130], 1.16 µM. With `CCN(c1ccc(-n2ccnc2)c(Br)c1)c1cc(-c2c(C)noc2C)cnc1C` [Compound 67], the IC50 was found to be 2.03 µM. Same read-out and setting: the same measure for `CCN(c1ccc(-n2cnc(Cl)c2)c(Br)c1)c1cc(-c2c(C)noc2C)ccc1C` [Compound 43]: 2.79 µM; for `CCN(c1ccc(-n2cnc(C)c2)c(Br)c1)c1cc(-c2c(C)noc2C)ccc1C` [Compound 57]: 2.38 µM. Take `CCN(c1ccc(-c2csc(N)n2)cc1)c1cc(-c2c(C)noc2C)ccc1C` [Compound 98, 4-(4-((5-(3,5-dimethylisoxazol-4-)-2-methylphenyl)(ethyl)amino)phenyl)thiazol-2-amine]: the IC50 was 4.77 µM. On to `CCN(c1ccc(-n2ccnc2)cc1)c1cc(-c2c(C)noc2C)ccc1C` [Compound 25], for which the IC50 is 1.25 µM. Still for that read-out and setting: under `CCN(c1ccc2[nH]ncc2c1)c1cc(-c2c(C)noc2C)ccc1C` [Compound 133] stands 8.74 µM; under `CCCn1nc(C)c(-c2ccc(C)c(N(CC)c3ccc(C#N)c(Cl)c3)c2)c1C` [Compound 5], 1.45 µM. Regarding `CCN(c1ccc(-c2ccon2)cc1)c1cc(-c2c(C)noc2C)ccc1C` [Compound 134], the IC50 turned out to be 0.89 µM. Consider `CCN(c1ccc(-c2cncn2C)cc1)c1cc(-c2c(C)noc2C)ccc1C` [Compound 106], for which the IC50 was determined as 0.7 µM. For the compound `CCN(c1ccc(C(N)=O)cc1)c1cc(-c2c(C)noc2C)ccc1C` [Compound 123], the IC50 amounted to 3.03 µM. As for `CCN(c1ccc(N)cc1)c1cc(-c2c(C)noc2C)ccc1C` [Compound 100, N-1-(5-(3,5-dimethylisoxazol-4-yl)-2-methylphenyl) N1-ethylbenzene-1,4-diamine], the IC50 was found to be 0.7 µM.

For the compound `CCN(c1ccc(C#N)c(Cl)c1)c1cc(-c2c(C)nn(C(C)C)c2C)ccc1C` [Compound 4], the IC50 turned out to be 1.4 µM.

With `CCN(c1ccc(-n2ccnc2)cc1)c1cc2c(C)noc2cc1C` [Compound 47], the IC50 was 3.3 µM. Take `CCN(c1ccc(-n2ccnc2)cc1)c1cc2onc(C)c2cc1C` [Compound 48]: the IC50 was 3.7 µM. Regarding `CCN(c1ccc(-c2cc(C)[nH]n2)cc1)c1cc(-c2c(C)noc2C)ccc1C` [Compound 97, 5-(3,5-dimethylisoxazol-4-)-N-ethyl-2-methyl-N-(4-(5-methyl-1H-pyrazol-3-yl)phenyl)aniline], the IC50 amounted to 3.23 µM. Same read-out and setting: the same measure for `CCN(c1ccc(C#N)c(Cl)c1)c1cc(-c2c(C)n[nH]c2C)ccc1C` [Compound 1]: 0.33 µM; for `CCN(c1ccc(-n2cncn2)cc1)c1cc(-c2c(C)noc2C)ccc1C` [Compound 35]: 1.2 µM. Regarding `CCN(c1ccc(C#N)c(Cl)c1)c1cc(-c2c(C)nn(CC)c2C)ccc1C` [Compound 3], the IC50 came to 1.4 µM. Regarding `CCN(c1ccc(-c2csnn2)cc1)c1cc(-c2c(C)noc2C)ccc1C` [Compound 108, N-(4-(1,2,3-thiazol-4-yl)phenyl)-5-(3,5-dimethylisoxazol-4-yl)-N-ethyl-2-methylaniline], the IC50 was determined as 0.76 µM. For `CCN(c1ccc(C#N)c(Cl)c1)c1cc(-c2[nH]ncc2C)ccc1C` [Compound 7], the IC50 came out at 2.19 µM.

For the next assay, the system named is 22RV1 cells. Briefly: Inhibition of proliferation of other prostate cancer cells: 22RV1. The conditions noted are these: Homo sapiens, same method as LNCaP/AR. The assay is classed as cell-based. The protocol:
as §1, §2, §3, §4, §5
2. Biological determination of the inhibitory effect on the proliferation of other prostate cancer cells
The inhibitory activity of the compound according to the present invention on other drug-resistant prostate cancer cells was measured by the same method as described above, in which VCaP and 22RV1 cells were commercially available.
Compound `CCN(c1ccc(-c2nnco2)cc1)c1cc(-c2c(C)noc2C)ccc1C` [Compound 129] showed an IC50 of 9.79 µM. In the case of `CCN(c1ccc(-c2cn[nH]c2C)cc1)c1cc(-c2c(C)noc2C)ccc1C` [Compound 126], the IC50 stood at 3.17 µM.

For `CCN(c1ccc(OC)cc1)c1cc(-c2c(C)noc2C)ccc1C` [Compound 101], the IC50 turned out to be 0.07 µM. In the case of `Cc1ccc(-c2c(C)noc2C)cc1Nc1ccc(Br)cc1` [Compound 120], the IC50 was determined as 0.63 µM. Same read-out and setting: the same measure for `CCN(c1ccc(-c2ccon2)cc1)c1cc(-c2c(C)noc2C)ccc1C` [Compound 134]: 6.06 µM; for `CCN(c1ccc(C(N)=O)cc1)c1cc(-c2c(C)noc2C)ccc1C` [Compound 123]: 5.64 µM.
